Results as given in patent publication US7166579B2, “Prodrugs of DP IV-inhibitors” (Prosidion Limited, priority 1998, dated 2007).
Structures can show the parent of a compound that is named as a salt. Residues, ends and D or L forms follow the SMILES beside them.

What was measured:
[1] = Blood glucose after oral glucose stimulation and oral administration (glucose tolerance); type: in vivo; settings: Wistar rats; within 100 minutes of p.o. glucose stimulation; p.o. dose 2.5 um active substance/300 g of animal; control = 100
[2] = molecular target: T1, human blood-DP IV (Homo sapiens, UniProt P27487); experiment: Inhibition of DP IV in human whole blood by release of Ile-Thia from prodrugs; settings: same concentration of prodrug, compared with Pro-Ile-Thia and Gly-Pro-Ile-Thia
T1 construct: from tissue; host or cells: human whole blood
Source text: Release of the masked DP IV-inhibitor in the blood can be carried out, in the case of the examples selected, by DP IV itself (Pro-Pro-Ile-Thia=PPIThia, Gly-Pro-Ile-Thia=GPIThia) or by aminopeptidases (pGlu-Ile-Thia=pEIThia, Pro-Ile-Thia=PIThia) (FIG. 1).

[3] = molecular target: T2, human peptide transporter PepT1 (Homo sapiens, UniProt P46059); experiment: Electrophysiological transport analysis, hPEPT1 expressed in oocytes; type: cell-based
T2 construct: expressed in transfected cells
T2 sequence (P46059 1-708): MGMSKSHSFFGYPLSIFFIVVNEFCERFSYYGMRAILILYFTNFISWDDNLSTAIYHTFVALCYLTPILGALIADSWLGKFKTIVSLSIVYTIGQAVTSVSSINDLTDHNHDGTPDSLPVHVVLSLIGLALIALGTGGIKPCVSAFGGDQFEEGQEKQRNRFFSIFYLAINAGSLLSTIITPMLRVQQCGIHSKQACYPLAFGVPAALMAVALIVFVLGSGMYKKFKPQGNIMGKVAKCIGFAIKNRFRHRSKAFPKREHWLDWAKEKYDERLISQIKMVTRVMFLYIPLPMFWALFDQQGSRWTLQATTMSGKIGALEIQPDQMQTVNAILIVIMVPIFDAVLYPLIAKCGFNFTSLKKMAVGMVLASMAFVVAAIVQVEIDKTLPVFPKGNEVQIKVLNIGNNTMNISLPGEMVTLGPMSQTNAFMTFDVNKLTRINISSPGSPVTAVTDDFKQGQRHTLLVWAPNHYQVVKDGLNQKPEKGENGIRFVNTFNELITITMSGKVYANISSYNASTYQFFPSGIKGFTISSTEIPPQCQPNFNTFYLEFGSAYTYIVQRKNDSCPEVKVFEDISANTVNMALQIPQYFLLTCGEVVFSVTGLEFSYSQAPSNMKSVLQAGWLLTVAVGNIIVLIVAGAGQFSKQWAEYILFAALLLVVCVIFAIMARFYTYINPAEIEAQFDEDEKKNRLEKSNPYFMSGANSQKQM

[4] = molecular target: T2, human peptide transporter PepT1; experiment: Affinity to PepT1 by displacement of radioactively labeled D-Phe-Ala; settings: read-out: Binding constant, mM, to PepT1, relative to D-Phe-Ala

T1 sequence (P27487 whole entry): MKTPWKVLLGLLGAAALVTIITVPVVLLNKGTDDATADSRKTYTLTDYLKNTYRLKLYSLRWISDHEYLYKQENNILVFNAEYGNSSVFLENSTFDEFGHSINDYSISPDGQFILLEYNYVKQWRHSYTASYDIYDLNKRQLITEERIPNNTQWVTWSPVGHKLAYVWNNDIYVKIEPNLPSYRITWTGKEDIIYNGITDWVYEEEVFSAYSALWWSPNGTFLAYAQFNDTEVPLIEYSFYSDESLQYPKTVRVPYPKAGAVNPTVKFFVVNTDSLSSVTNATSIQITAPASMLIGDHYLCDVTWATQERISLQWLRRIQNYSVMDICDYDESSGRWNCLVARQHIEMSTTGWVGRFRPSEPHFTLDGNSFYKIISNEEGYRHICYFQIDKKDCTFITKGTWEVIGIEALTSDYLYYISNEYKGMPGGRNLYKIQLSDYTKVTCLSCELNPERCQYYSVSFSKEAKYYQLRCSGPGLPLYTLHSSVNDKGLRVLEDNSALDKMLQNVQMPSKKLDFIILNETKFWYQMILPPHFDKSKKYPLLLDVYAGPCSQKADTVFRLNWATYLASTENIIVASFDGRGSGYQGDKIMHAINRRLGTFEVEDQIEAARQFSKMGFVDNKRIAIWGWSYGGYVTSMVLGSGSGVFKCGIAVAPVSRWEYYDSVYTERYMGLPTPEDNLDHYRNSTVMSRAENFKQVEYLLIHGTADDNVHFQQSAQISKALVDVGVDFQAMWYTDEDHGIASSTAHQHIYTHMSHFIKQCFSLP

Row | Electrophys. transport analysis (hPEPT1 expr. in oocytes), flux % based on the Gly-Gln control (100%) [3] [%] | Ki [4] [mM] | Compound | other results
1 |  |  | H-Pro-Ile-Thia/HC1 | % glucose level [1]: 56.1%
2 |  |  | pGlu-Ile-Thia | Release of the DP IV-inhibitor isoleucyl thiazolidide from the prodrug in the blood (time course of DP IV inhibition) [2]: more marked delay in the release of active substance
3 | 30 | 3.01 | NC(=O)CC(N)C(=O)N1CCCC1 (stereo not shown) [Asn-Pyr] | 
4 | 14 | 2.66 | CCC(C)C(N)C(=O)N1CCCC1 (stereo not shown) [Ile-Pyr] | 
5 |  |  | H-Gly-Pro-Ile-Thia/HC1 | % glucose level [1]: 57.1%
6 | 25 | 0.98 | CCC(C)C(N)C(=O)N1CCSC1 (stereo not shown) [Ile-Thia, isoleucyl thiazolidide] | % glucose level [1]: 74.4%
7 | 83 | 0.5 | NC(=O)CC(N)C(=O)N1CCSC1 (stereo not shown) [Asn-Thia] | 
8 | 7 | 5.34 | NC(Cc1c[nH]cn1)C(=O)N1CCCC1 (stereo not shown) [His-Pyr] | 
9 | 10 | 0.19 | NCCCCC(N)C(=O)NC(Cc1ccccc1)C(=O)N1CCCC1C(=O)O (stereo not drawn) [Lys-Phe-Pro] (H-Lys-Phe-Pro-OH; configuration not given here) | 
10 | 44 | 0.61 | CC[C@H](C)[C@H](N)C(=O)N1CCC[C@H]1C(=O)N[C@H](C(=O)N1CCSC1)[C@@H](C)CC [Ile-Pro-Ile-Thia] | 
11 |  |  | Pro-Pro-Ile-Thia | Release of the DP IV-inhibitor isoleucyl thiazolidide from the prodrug in the blood (time course of DP IV inhibition) [2]: more marked delay in the release of active substance
12 |  |  | CC[C@H](C)[C@H](N)C(=O)N1CCC[C@H]1C(=O)N[C@H](C(=O)N1CCSC1)[C@@H](C)CC (as salt: HCl) [Ile-Pro-Ile-Thia] | melting point: 98 to 107 °C

Row | Compound | Electrophys. transport analysis (hPEPT1 expr. in oocytes), flux % based on the Gly-Gln control (100%) [3] [%] | Ki [4] [mM] | other results
13 | NCCCCC(N)C(=O)NC(Cc1ccccc1)C(=O)O (stereo not shown) [Lys-phe] | 95 | 0.08 | 
